Laboratory results reported in ChEMBL document CHEMBL5329192, “Synthesis, biological activities, and future perspectives of steroidal monocyclic pyridines” (RSC Med Chem, 2023).

How the values were obtained:
A549 = assay: Cytotoxicity against human A549 cells assessed as reduction in cell viability incubated for 72 hrs by MTT assay; type: functional, cell-based; settings: A549, 72 h
MCF7 [1] = assay: Cytotoxicity against human MCF7 cells assessed as reduction in cell viability incubated for 72 hrs by MTT assay; type: functional, cell-based; settings: MCF7, 72 h
ECa-109 cell line = assay: Cytotoxicity against human Eca-109 cells assessed as reduction in cell viability incubated for 72 hrs by MTT assay; type: functional, cell-based; settings: ECa-109, 72 h
MGC-803 = assay: Cytotoxicity against human MGC-803 cells assessed as reduction in cell viability incubated for 72 hrs by MTT assay; type: functional, cell-based; settings: MGC-803, 72 h
PC-3 = assay: Cytotoxicity against human PC-3 cells assessed as reduction in cell viability incubated for 72 hrs by MTT assay; type: functional, cell-based; settings: PC-3, 72 h
[2] = Cytotoxicity against human HEp-2 cells assessed as reduction in cell viability incubated for 48 hrs by MTT assay; type: toxicity, cell-based
HeLa = assay: Antiproliferative activity against human HeLa cells assessed as reduction in cell growth incubated for 48 hrs by MTT assay; type: functional, cell-based
SK-OV-3 = assay: Antiproliferative activity against human SK-OV-3 cells assessed as reduction in cell growth incubated for 48 hrs by MTT assay; type: functional, cell-based; settings: SK-OV-3, 48 h
HepG2 = assay: Antiproliferative activity against human HepG2 cells assessed as reduction in cell growth incubated for 48 hrs by MTT assay; type: functional, cell-based; settings: HepG2, 48 h
MCF7 [3] = assay: Antiproliferative activity against human MCF7 cells assessed as reduction in cell growth incubated for 48 hrs by MTT assay; type: functional, cell-based; settings: MCF7, 48 h
[4] = Acute toxicity in ip dosed albino rat administered twice daily for 14 days; type: organism-based; settings: in vivo, time 14 day
Rattus norvegicus [5] = organism: Rattus norvegicus; assay: Ratio of anti-anabolic activity against albino rat assessed as reduction in mass of levator ani-muscle to anti-androgenic activity against albino rat assessed as mass gain of prostate gland; type: functional
Rattus norvegicus [6] = assay: Anti-androgen activity against albino rat assessed as mass gain of prostate gland at 0.1 mg/kg, sc administered for 7 days; type: functional; settings: time 7 day

IC50 (HeLa) [µM]	IC50 (SK-OV-3) [µM]	IC50 (HepG2) [µM]	IC50 (MCF7 [3]) [µM]	Compound	IC50 (A549) [µM]	IC50 (MCF7 [1]) [µM]	IC50 (ECa-109 cell line) [µM]	IC50 (MGC-803) [µM]	IC50 (PC-3) [µM]	also measured
–	–	–	–	C[C@]12CC[C@H]3[C@@H](CC=C4C[C@@H](O)CC[C@@]43C)[C@@H]1CC[C@@H]2c1cc(-c2ccnc(Br)c2)c(C#N)c(N)n1	43.6	> 64	22.3	19.7	7	–
–	–	–	–	COc1ccc(-c2cc([C@H]3CC[C@H]4[C@@H]5CC=C6C[C@@H](OC(C)=O)CC[C@]6(C)[C@H]5CC[C@]34C)nc(N)c2C#N)cc1	–	–	–	–	–	CC50 at 48 h [2]: > 400 µM
26.7	28.3	26.7	31.2	CCOc1ccc(-c2cc([C@H]3CC[C@H]4[C@@H]5CC=C6C[C@@H](O)CC[C@]6(C)[C@H]5CC[C@]34C)nc(N)c2C#N)cc1	–	–	–	–	–	–
–	–	–	–	CC(=O)O[C@H]1CC[C@@]2(C)C(=CC[C@H]3[C@@H]4CC[C@H](c5cc(-c6ccc(Cl)cc6)c(C#N)c(N)n5)[C@@]4(C)CC[C@@H]32)C1	–	–	–	–	–	CC50 at 48 h [2]: 252 µM
16.3	13.9	25.8	18.8	C[C@]12CC[C@H]3[C@@H](CC=C4C[C@@H](O)CC[C@@]43C)[C@@H]1CC[C@@H]2c1cc(-c2ccco2)c(C#N)c(N)n1	–	–	–	–	–	–
–	–	–	–	CC(=O)O[C@H]1CC[C@@]2(C)C(=CC[C@H]3[C@@H]4CC[C@H](c5cc(-c6ccc(C#N)cc6)c(C#N)c(N)n5)[C@@]4(C)CC[C@@H]32)C1	–	–	–	–	–	CC50 at 48 h [2]: 39.3 µM
105	92.2	75.5	30.2	C[C@]12CC[C@H]3[C@@H](CC=C4C[C@@H](O)CC[C@@]43C)[C@@H]1CC[C@@H]2c1cc(-c2cccnc2)c(C#N)c(N)n1	–	–	–	–	–	–
40.3	32.5	34.8	101	COc1ccc(-c2cc([C@H]3CC[C@H]4[C@@H]5CC=C6C[C@@H](O)CC[C@]6(C)[C@H]5CC[C@]34C)nc(N)c2C#N)cc1	> 64	51.1	> 64	57.8	5.7	–
7.36	7.02	13.8	6.28	C[C@]12CC[C@H]3[C@@H](CC=C4C[C@@H](O)CC[C@@]43C)[C@@H]1CC[C@@H]2c1cc(-c2cccc(O)c2)c(C#N)c(N)n1	–	–	–	–	–	–
–	–	–	–	COc1cccc(-c2cc([C@H]3CC[C@H]4[C@@H]5CC=C6C[C@@H](OC(C)=O)CC[C@]6(C)[C@H]5CC[C@]34C)nc(N)c2C#N)c1	–	–	–	–	–	CC50 at 48 h [2]: 160 µM
–	–	–	–	C[C@]12CC[C@H]3[C@@H](CC=C4C[C@@H](O)CC[C@@]43C)[C@@H]1CC[C@@H]2c1cc(-c2ccc(F)cc2F)c(C#N)c(N)n1	> 64	30.3	58	22.7	3.5	–
–	–	–	–	C[C@]12CC[C@H]3[C@@H](CC=C4C[C@@H](O)CC[C@@]43C)[C@@H]1CC[C@@H]2c1cc(-c2cccc(Cl)c2)c(C#N)c(N)n1	30.3	29	> 64	> 64	9.7	–
–	–	–	–	C[C@]12CC[C@H]3[C@@H](CC=C4C[C@@H](O)CC[C@@]43C)[C@@H]1CC[C@@H]2c1cc(-c2ccc(Cl)cc2)c(C#N)c(N)n1	43.9	26.2	48.9	55	15.7	–
38.9	33.9	41.4	105	C[C@]12CC[C@H]3[C@@H](CC=C4C[C@@H](O)CC[C@@]43C)[C@@H]1CC[C@@H]2c1cc(-c2ccc(OCc3ccccc3)c(OCc3ccccc3)c2OCc2ccccc2)c(C#N)c(N)n1	–	–	–	–	–	–
107	29.5	55.4	107	COc1ccc(-c2cc([C@H]3CC[C@H]4[C@@H]5CC=C6C[C@@H](O)CC[C@]6(C)[C@H]5CC[C@]34C)nc(N)c2C#N)cc1OC	–	–	–	–	–	–
63.2	26.1	15.9	19	C[C@]12CC[C@H]3[C@@H](CC=C4C[C@@H](O)CC[C@@]43C)[C@@H]1CC[C@@H]2c1cc(-c2ccc(OCc3ccccc3)cc2)c(C#N)c(N)n1	–	–	–	–	–	–
–	–	–	–	COc1ccccc1-c1cc([C@H]2CC[C@H]3[C@@H]4CC=C5C[C@@H](OC(C)=O)CC[C@]5(C)[C@H]4CC[C@]23C)nc(N)c1C#N	–	–	–	–	–	CC50 at 48 h [2]: 299 µM
–	–	–	–	C[C@]12CC[C@H](O)C[C@@H]1CC[C@@H]1[C@@H]2CC[C@]2(C)c3c(c(-c4ccccc4)[nH]c(=O)c3C#N)C[C@@H]12	–	–	–	–	–	LD50 at 336 h [4]: 4920 mg/kg; Ratio (Rattus norvegicus [5]): 11.3; Activity (Rattus norvegicus [6]): 0.234 g

IC50 (HeLa) [µM]	IC50 (SK-OV-3) [µM]	IC50 (HepG2) [µM]	IC50 (MCF7 [3]) [µM]	Compound	IC50 (A549) [µM]	IC50 (MCF7 [1]) [µM]	IC50 (ECa-109 cell line) [µM]	IC50 (MGC-803) [µM]	IC50 (PC-3) [µM]	also measured
–	–	–	–	C[C@]12CC[C@H]3[C@@H](CC=C4C[C@@H](O)CC[C@@]43C)[C@@H]1CC[C@@H]2c1cc(-c2ccccc2F)c(C#N)c(N)n1	28.8	10.1	17.8	9.4	3.2	–
–	–	–	–	C[C@]12CC[C@H]3[C@@H](CC=C4C[C@@H](O)CC[C@@]43C)[C@@H]1CC[C@@H]2c1cc(-c2ccccc2Cl)c(C#N)c(N)n1	33.3	18.8	30.1	8.4	3.7	–
–	–	–	–	C[C@]12CC[C@H]3[C@@H](CC=C4C[C@@H](O)CC[C@@]43C)[C@@H]1CC[C@@H]2c1cc(-c2ccc(F)c(Br)c2)c(C#N)c(N)n1	56.2	37.3	> 64	> 64	5.9	–
–	–	–	–	COc1cccc(-c2cc([C@H]3CC[C@H]4[C@@H]5CC=C6C[C@@H](O)CC[C@]6(C)[C@H]5CC[C@]34C)nc(N)c2C#N)c1	> 64	27.4	> 64	> 64	7.5	–
12.2	7.66	15.2	12	C[C@]12CC[C@H]3[C@@H](CC=C4C[C@@H](O)CC[C@@]43C)[C@@H]1CC[C@@H]2c1cc(-c2ccc(Br)cc2)c(C#N)c(N)n1	–	–	–	–	–	–
14.6	13.1	23.8	15.5	C[C@]12CC[C@H]3[C@@H](CC=C4C[C@@H](O)CC[C@@]43C)[C@@H]1CC[C@@H]2c1cc(-c2ccccc2)c(C#N)c(N)n1	43.2	16	> 64	10.9	3.2	–
–	–	–	–	COc1ccccc1-c1cc([C@H]2CC[C@H]3[C@@H]4CC=C5C[C@@H](O)CC[C@]5(C)[C@H]4CC[C@]23C)nc(N)c1C#N	20.7	45.2	19.7	17	8	–
46.5	17.7	41.2	28.9	C[C@]12CC[C@H]3[C@@H](CC=C4C[C@@H](O)CC[C@@]43C)[C@@H]1CC[C@@H]2c1cc(-c2cccc(Br)c2)c(C#N)c(N)n1	–	–	–	–	–	–
73.3	18.9	103	47.8	C[C@]12CC[C@H]3[C@@H](CC=C4C[C@@H](O)CC[C@@]43C)[C@@H]1CC[C@@H]2c1cc(-c2ccncc2)c(C#N)c(N)n1	–	–	–	–	–	–
18.6	11.2	28.4	33.9	C[C@]12CC[C@H]3[C@@H](CC=C4C[C@@H](O)CC[C@@]43C)[C@@H]1CC[C@@H]2c1cc(-c2ccccc2Br)c(C#N)c(N)n1	–	–	–	–	–	–
–	–	–	–	CC(=O)O[C@H]1CC[C@@]2(C)C(=CC[C@H]3[C@@H]4CC[C@H](c5cc(-c6c(F)cccc6F)c(C#N)c(N)n5)[C@@]4(C)CC[C@@H]32)C1	–	–	–	–	–	CC50 at 48 h [2]: 374 µM
–	–	–	–	CC(=O)O[C@H]1CC[C@@]2(C)C(=CC[C@H]3[C@@H]4CC[C@H](c5cc(-c6cccc(Cl)c6)c(C#N)c(N)n5)[C@@]4(C)CC[C@@H]32)C1	–	–	–	–	–	CC50 at 48 h [2]: 181 µM
–	–	–	–	CC(=O)O[C@H]1CC[C@@]2(C)C(=CC[C@H]3[C@@H]4CC[C@H](c5cc(-c6ccc(F)cc6F)c(C#N)c(N)n5)[C@@]4(C)CC[C@@H]32)C1	–	–	–	–	–	CC50 at 48 h [2]: 174 µM
15	17.3	50.2	17	COc1ccc(-c2cc([C@H]3CC[C@H]4[C@@H]5CC=C6C[C@@H](O)CC[C@]6(C)[C@H]5CC[C@]34C)nc(N)c2C#N)cc1O	–	–	–	–	–	–
22	21.8	21.5	41.1	C[C@]12CC[C@H]3[C@@H](CC=C4C[C@@H](O)CC[C@@]43C)[C@@H]1CC[C@@H]2c1cc(-c2cccc(OCc3ccccc3)c2)c(C#N)c(N)n1	–	–	–	–	–	–
–	–	–	–	C[C@]12CC[C@H]3[C@@H](CC=C4C[C@@H](O)CC[C@@]43C)[C@@H]1CC[C@@H]2c1cc(-c2c(F)cccc2F)c(C#N)c(N)n1	17.3	11.6	> 64	8.8	2	–
–	–	–	–	CC(=O)O[C@H]1CC[C@@]2(C)C(=CC[C@H]3[C@@H]4CC[C@H](c5cc(-c6ccccc6)c(C#N)c(N)n5)[C@@]4(C)CC[C@@H]32)C1	–	–	–	–	–	CC50 at 48 h [2]: 227 µM
